One data set deals with Aphidius rhopalosiphi. As to conditions: chronic/long-term.
In a further data set the test system is Apis mellifera. The following applies: acute; duration: 48 hours; dermal; mortality.
A further data set concerns Canidae. As to conditions: chronic; duration: 1 years; oral; Dog Other; hematological.
The test system of another data set is Colinus virginianus. As to conditions: for LD50: acute, oral, mortality.
The next data set has as its system Daphnia magna. The following applies: chronic/long-term; duration: 21 days; reproduction.
A further data set concerns Lepomis macrochirus. As to conditions: acute; duration: 96 hours; mortality.
The next data set relates to Pimephales promelas. The following applies: chronic/long-term; duration: 36 days; growth.
Another data set relates to Rattus norvegicus. The following applies: for NOAEL: hematological.
The next data set has as its system Tagia sp. The following applies: acute; duration: 14 days; mortality.
In another data set the test system is Typhlodromus pyri. The following applies: chronic/long-term.

What is called NOAEL is the highest tested level that showed no adverse finding. Take `O=C(NC(=O)c1ccccc1Cl)Nc1ccc(OC(F)(F)F)cc1` [Triflumuron]: the LEL was 300 g/ha with Aphidius rhopalosiphi (mortality); 300 g/ha with Aphidius rhopalosiphi (reproduction); 384 g/ha in the data set with Typhlodromus pyri (duration: 7 days, mortality); 384 g/ha with Typhlodromus pyri (reproduction). The LD50 was greater than 200 µg/piece in the data set with Apis mellifera; greater than 805 mg/kg-day in the data set with Colinus virginianus (diet); 561 mg/kg-day in the data set on Colinus virginianus; greater than 5000 mg/kg-day in the data set on Rattus norvegicus (acute, oral, mortality). The no-observed-adverse-effect level (NOAEL) with Canidae was found to be 1.42 mg/kg-day; with Rattus norvegicus (chronic, duration: 2 years), 0.82 mg/kg-day; in the data set on Rattus norvegicus (subchronic, duration: 90 days, oral), 3.6 mg/kg-day. The NOEC in the data set with Colinus virginianus (reproduction developmental) is 1.65 mg/kg-day; in the data set on Daphnia magna, 3.2e-05 mg/L; in the data set on Pimephales promelas, no less than 0.0228 mg/L; in the data set with Rattus norvegicus (chronic) it was 142 mg/kg-day. Further, the LC50 was greater than 0.0208 µg/mL in the data set on Lepomis macrochirus and greater than 500 mg/kg with Tagia sp..

The record behind these values is EPA's ToxValDB 9.5 (doi:10.2903/j.efsa.2009.194r).
